Measurements as given in US5492905A, “1-bolizazepin-2,5-diones” (Zeneca Limited, priority 1992, dated 1996).

Experiments:
[1] = biological target: T1, glycine receptor of the NMDA receptor complex (Rattus norvegicus, UniProt P35439); test: [3H]-glycine binding assay; parameters: species or system Sprague-Dawley rats; details: 20 nM [3H]-glycine, rat neuronal synaptic membranes (cortices and hippocampi), pH 7.1, 30 min, 4° C.
T1 construct: neuronal synaptic membranes are prepared from adult (about 250 g) male Sprague-Dawley rats; from tissue; host or cells: synaptic membranes of cortices and hippocampi of adult male Sprague-Dawley rats
Experimental: The actions of compounds of formula I as antagonists at the glycine receptor of the NMDA receptor complex can be shown by standard tests such as the [^3 H]-glycine binding assay, by functional assays in vitro such as tests for measuring glutamate evoked contractions of the guinea pig ileum, and by tests in vivo such as ischemia induced by carotid occlusion in the gerbil model.
In the [^3 H]-glycine binding assay, neuronal synaptic membranes are prepared from adult (about 250 g) male Sprague-Dawley rats. Freshly dissected cortices and hippocampi are homogenized in 0.32M sucrose (110 mg/mL). Synaptosomes are isolated by centrifugation (1000 xg, 10 min), the supernatant is pelleted (20,000 xg, 20 min) and resuspended in double-distilled water. The suspension was centrifuged for 20 minutes at 8,000 xg. The resulting supernatant and buffy coat are washed twice (48,000 xg, 10 mins, resuspension in double-deionized water). The final pellet is quickly frozen (dry ice ethanol bath) under double-deionized water and stored at -70 ° C. […]
For [^3 H]-glycine binding at the N-methyl-D-aspartate receptor, 20 nM [^3 H]-glycine (40-60 Ci/mmol, New England Nuclear, Boston, Mass.) is incubated with the membranes suspended in 50 mM tris (hydroxymethyl)aminomethane citrate, pH 7.1 for 30 minutes at 4° C. […] Radioactivity is estimated by liquid scintillation counting. […]

[2] = test system: neuronal damage in the hippocampus; test: gerbil ischemic model (bilateral carotid occlusion), neuroprotection; assay type: in vivo, Mongolian gerbils; details: dosed twice with 20 mg/kg body weight ip (e.g. 45 min before and 5 min after occlusion); 10 min occlusion; brains taken after 4 days
Experimental: When testing in vivo using the gerbil ischemic model, adult female Mongolian gerbils (50-70 g) are anesthetized with 2 to 3% halothane. The bilateral common carotid arteries at the neck are exposed and occluded with microaneurysm clips. After 10 min (unless specified), the clips are removed and the blood flow through the carotid arteries is restored and the skin is sutured. Test compounds are administered intraperitoneally both pre- and post-occlusion, for example 45 minutes before and 5 minutes after occlusion of the carotid arteries. Sham-operated animals are treated in the same manner except that the arteries are not clamped. Gross behavioral observations along with motor activity are recorded for 2 hr on the first (24 hr) day following the occlusion. After 4 days, subjects are sacrificed (decapitation), brains are removed, fixed, sectioned and stained with hematoxylin/eosin and cresyl violet.
The brain sections are rated for neuronal damage in the hippocampus using the following rating scale:
1=slight damage (up to 25%) - restricted CA1/subiculum border
2=moderate damage (up to 50%) - obvious damage, restricted to less than half of CA1 field
3=marked damage (up to 75%) - involving greater than half of CA1 field
4=damage extending beyond CA1 field
Results can be reported as the percentage of neuroprotection afforded by a particular dose and dosing regimen.
Sections (7 micron) are evaluated from each brain. Occasionally, asymmetrical damage may be noted and the rating assigned is the average score of the two sides. The average brain damage rating score for each group is recorded, and the damage scores of the drug treated group are compared to the vehicle-treated group using Wilcoxcon-Rank Sum test.

| Structure (SMILES) | IC50 [1] [µM] | neuroprotection (relative to sham-operated control) [2] |
| --- | --- | --- |
| O=c1[nH]c2cc(Cl)ccc2c(=O)cc1N1CCCC1 [Example 12] | ~470 | about 62% |
| O=c1[nH]c2cc(Cl)ccc2c(=O)cc1NCCc1ccccc1 [Example 6, 8-Chloro-2,5-dioxo-3-phenethylamino-2,5-dihydro-1H-benz[b]azepine] | – | about 43% |
| O=c1[nH]c2cc(Cl)ccc2c(=O)cc1NC[C@H](O)[C@@H](O)[C@H](O)[C@H](O)CO [Example 19, 8-Chloro-3-(D-glucamino)-2,5-dioxo-2,5-dihydro-1H-benz[b]azepine] | ~43 | about 80% |
